Numbered stars: 1 amine (or outer) side, 2 acyl side, 3 side chain; on linkers, the order of the positions; unused ones are H or OH. Bridge positions count the residues as written; N and C are the ends. Square brackets hold non-standard residues; d marks the D form. Peptide text beside a SMILES is read from it. ξ: configuration not given here. Trp(1-CH2CONHSO2Me) = CS(=O)(=O)NC(=O)Cn1cc(C[C@H](N)C(=O)O)c2ccccc21; X14 = C[C@H](C(=O)O)n1c(=O)n(C[C@H](N[*:1])C(=O)[*:2])c2ccccc21; Trp(7-aza,1-CH2COOH) = N[C@@H](Cc1cn(CC(=O)O)c2ncccc12)C(=O)O; X17 = O=C([C@H](Cc1cn(Cc2nnn[nH]2)c2ccccc12)N[*:1])[*:2]; Ala(4-isoquinolinyl) = N[C@@H](Cc1cncc2ccccc12)C(=O)O; X5 = O=C(O)Cn1nc(C[C@H](N[*:1])C(=O)[*:2])c2ccccc21; Trp(5-CN) = N#Cc1ccc2[nH]cc(C[C@H](N)C(=O)O)c2c1; X8 = O=C(O)Cn1cc(CC(N[*:1])C(=O)[*:2])c2cncnc21; X9 = O=C(O)Cn1cc(CC(N[*:1])C(=O)[*:2])c2cnccc21; X15 = O=C([C@H](Cc1n[nH]c2ccccc12)N[*:1])[*:2]; Hyp = O=C(O)[C@@H]1C[C@@H](O)CN1; NMeNle = CCCC[C@H](NC)C(=O)O; Pen = CC(C)(S)[C@H](N)C(=O)O; Pip = O=C(O)[C@@H]1CCCCN1; NMeA = CN[C@@H](C)C(=O)O; Dab = NCC[C@H](N)C(=O)O; Dap = NC[C@H](N)C(=O)O; ξP = O=C(O)C1CCCN1
What follows are molecules tested against T1, PD-1-Ig binding to PD-L1-TVMV-His (PD-L1-His) (Homo sapiens, UniProt Q9NZQ7) (assay: PD-1/PD-L1 Homogenous Time-Resolved Fluorescence (HTRF) binding assay). Details: PD-1-Ig (20 nM)/PD-L1-His (10 nM); numeric value.
T1 construct: hPDL1 (19-239)-TVMV-His; TVMV protease cleavage site (C); made in house; host or cells: HEK293T cells
From the text: The ability of the macrocyclic peptides of the present disclosure to bind to PD-L1 was investigated using a PD-1/PD-L1 Homogenous Time-Resolved Fluorescence (HTRF) binding assay.
Homogenous Time-Resolved Fluorescence (HTRF) Assays of Binding of Soluble PD-1 to Soluble PD-L1. Soluble PD-1 and soluble PD-L1 refers to proteins with carboxyl-end truncations that remove the transmembrane-spanning regions and are fused to heterologous sequences, specifically the Fc portion of the human immunoglobuling G sequence (Ig) or the hexahistidine epitope tag (His). All binding studies were performed in an HTRF assay buffer consisting of dPBS supplemented with 0.1% (w/v) bovine serum albumin and 0.05% (v/v) Tween-20. For the PD-1-Ig/PD-L1-His binding assay, inhibitors were pre-incubated with PD-L1-His (10 nM final) for 15 m in 4 μl of assay buffer, followed by addition of PD-1-Ig (20 nM final) in 1 μl of assay buffer and further incubation for 15 m. PD-L1 fusion proteins from either human, cynomologous macaques, mouse, or other species were used. HTRF detection was achieved using europium crypate-labeled anti-Ig monoclonal antibody (1 nM final) and allophycocyanin (APC) labeled anti-His monoclonal antibody (20 nM final). Antibodies were diluted in HTRF detection buffer and 5 μl was dispensed on top of binding reaction. The reaction was allowed to equilibrate for 30 minutes and signal (665 nm/620 nm ratio) was obtained using an EnVision fluorometer. Additional binding assays were established between PD-1-Ig/PD-L2-His (20 and 5 nM, respectively), CD80-His/PD-L1-Ig (100 and 10 nM, respectively) and CD80-His/CTLA4-Ig (10 and 5 nM, respectively). Binding/competition studies between biotinylated Compound No. 71 and human PD-L1-His were performed as follows. Macrocyclic peptide inhibitors were pre-incubated with PD-L1-His (10 nM final) for 60 minutes in 4 μl of assay buffer followed by addition of biotinylated Compound No. 71 (0.5 nM final) in 1 μl of assay buffer. Binding was allowed to equilibrate for 30 minutes followed by addition of europium crylated labeled Streptavidin (2.5 pM final) and APC-labeled anti-His (20 nM final) in 5 μl of HTRF buffer. The reaction was allowed to equilibrate for 30 m and signal (665 nm/620 nm ratio) was obtained using an EnVision fluorometer.
Recombinant Proteins. Carboxyl-truncated human PD-1 (amino acids 25-167) with a C-terminal human Ig epitope tag [hPD-1 (25-167)-3S-IG] and human PD-L1 (amino acids 18-239) with a C-terminal His epitope tag [hPD-L1(19-239)-tobacco vein mottling virus protease cleavage site (TVMV)-His] were expressed in HEK293T cells and purified sequentially by recombinant Protein A affinity chromatography and size exclusion chromatography. Human PD-L2-His (Sino Biologicals), CD80-His (Sino Biologicals), CTLA4-Ig (RnD Systems) were all obtained through commercial sources.

T1 sequence (Q9NZQ7 with tags, fused parts or gaps): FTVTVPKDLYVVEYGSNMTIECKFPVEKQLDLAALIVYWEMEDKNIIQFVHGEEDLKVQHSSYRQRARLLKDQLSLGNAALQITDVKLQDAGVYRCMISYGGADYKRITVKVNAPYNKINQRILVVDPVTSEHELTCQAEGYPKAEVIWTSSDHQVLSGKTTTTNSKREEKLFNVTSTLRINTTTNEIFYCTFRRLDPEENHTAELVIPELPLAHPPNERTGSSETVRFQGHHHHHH

Row | SMILES | IC50
1 | CCCC[C@H]1C(=O)N(C)[C@@H](CCCC)C(=O)N[C@@H](CC(C)C)C(=O)N[C@H](C(=O)NCC(N)=O)CSCC(=O)N[C@@H](Cc2ccc(O)cc2)C(=O)N(C)[C@@H](C)C(=O)N[C@@H](CC(N)=O)C(=O)N2CCC[C@H]2C(=O)N[C@@H](CN)C(=O)N[C@@H](CC(C)C)C(=O)N2C[C@H](O)C[C@H]2C(=O)N[C@@H](Cc2c[nH]c3ccccc23)C(=O)N[C@@H](CCN)C(=O)N[C@@H](Cc2cn(CC(=O)NS(C)(=O)=O)c3ccccc23)C(=O)N1C [Example 1001] ({CH2CO}-Y[NMeA]NP[Dap]L[Hyp]W[Dab][Trp(1-CH2CONHSO2Me)][NMeNle][NMeNle]LCG-NH2; thioether N-14) | 4 nM

Same assay, conditions: PD-1-Ig (20 nM)/PD-L1-His (10 nM); range class

Row | SMILES | IC50
2 | CCCC[C@H]1C(=O)N(C)[C@@H](CCCC)C(=O)N[C@@H](C)C(=O)N[C@H](C(=O)NCC(N)=O)CSCC(=O)N[C@@H](Cc2ccc(O)cc2)C(=O)N(C)[C@@H](C)C(=O)N[C@@H](CC(N)=O)C(=O)N2CCCC2C(=O)N[C@@H](Cc2cnc[nH]2)C(=O)N[C@@H](CCC(N)=O)C(=O)N2C[C@H](O)C[C@H]2C(=O)N[C@@H](Cc2c[nH]c3ccccc23)C(=O)N[C@@H](CO)C(=O)N[C@@H](Cc2c[nH]c3ccc(C#N)cc23)C(=O)N1C (stereo partly drawn) [Example 1284] ({CH2CO}-Y[NMeA]N[ξP]HQ[Hyp]WS[Trp(5-CN)][NMeNle][NMeNle]ACG-NH2; thioether N-14) | 100 to 990 nM
3 | CCCC[C@H]1C(=O)N(C)[C@@H](CCCC)C(=O)N[C@@H](CC(C)C)C(=O)N[C@H](C(=O)NCC(N)=O)CSCC(=O)N[C@@H](Cc2ccc(O)cc2)C(=O)N(C)[C@@H](C)C(=O)N[C@@H](CC(N)=O)C(=O)N2CCC[C@H]2C(=O)N[C@@H](CN)C(=O)N[C@@H](CC(C)C)C(=O)N2C[C@H](O)C[C@H]2C(=O)N[C@@H](Cc2c[nH]c3ccccc23)C(=O)N[C@@H](CCN)C(=O)N[C@@H](Cc2nn(CC(=O)O)c3ccccc23)C(=O)N1C [Example 10500] ({CH2CO}-Y[NMeA]NP[Dap]L[Hyp]W[Dab][X5][NMeNle][NMeNle]LCG-NH2; thioether N-14) | 1 to 9.9 nM
4 | CCCC[C@H]1C(=O)N(C)[C@@H](CCCC)C(=O)N[C@@H](C)C(=O)N[C@H](C(=O)NCC(N)=O)CSCC(=O)N[C@@H](Cc2ccc(O)cc2)C(=O)N(C)[C@@H](C)C(=O)N[C@@H](CC(N)=O)C(=O)N2CCCC2C(=O)N[C@@H](Cc2cnc[nH]2)C(=O)N[C@@H](CCC(N)=O)C(=O)N2C[C@H](O)C[C@H]2C(=O)N[C@@H](Cc2c[nH]c3ccccc23)C(=O)N[C@@H](CO)C(=O)N[C@@H](Cc2n[nH]c3ccccc23)C(=O)N1C (stereo partly drawn) [Example 1286] ({CH2CO}-Y[NMeA]N[ξP]HQ[Hyp]WS[X15][NMeNle][NMeNle]ACG-NH2; thioether N-14) | 100 to 990 nM
5 | CCCC[C@H]1C(=O)N(C)[C@@H](CCCC)C(=O)N[C@@H](CC(C)C)C(=O)N[C@H](C(N)=O)CSCC(=O)N[C@@H](Cc2ccc(O)cc2)C(=O)N(C)[C@@H](C)C(=O)N[C@@H](CC(N)=O)C(=O)N2CCC[C@H]2C(=O)N[C@@H](CN)C(=O)N[C@@H](CC(C)C)C(=O)N2C[C@H](O)C[C@H]2C(=O)N[C@@H](Cc2c[nH]c3ccccc23)C(=O)N[C@@H](CCN)C(=O)N[C@@H](Cc2cn(CC(=O)O)c3ncccc23)C(=O)N1C [Example 10504] ({CH2CO}-Y[NMeA]NP[Dap]L[Hyp]W[Dab][Trp(7-aza,1-CH2COOH)][NMeNle][NMeNle]LC-NH2; thioether N-14) | 1 to 9.9 nM
6 | CCCC[C@H]1C(=O)N(C)[C@@H](CCCC)C(=O)N[C@@H](CC(C)C)C(=O)N[C@H](C(=O)NCC(N)=O)CSCC(=O)N[C@@H](Cc2ccc(O)cc2)C(=O)N(C)[C@@H](C)C(=O)N[C@@H](CC(N)=O)C(=O)N2CCC[C@H]2C(=O)N[C@@H](CN)C(=O)N[C@@H](CC(C)C)C(=O)N2C[C@H](O)C[C@H]2C(=O)N[C@@H](Cc2c[nH]c3ccccc23)C(=O)N[C@@H](CCN)C(=O)NC(Cc2cn(CC(=O)O)c3ccncc23)C(=O)N1C (stereo partly drawn) [Example 10001] ({CH2CO}-Y[NMeA]NP[Dap]L[Hyp]W[Dab][X9][NMeNle][NMeNle]LCG-NH2; thioether N-14) | 10 to 99 nM
7 | CCCC[C@H]1C(=O)N(C)[C@@H](CCCC)C(=O)N[C@@H](CC(C)C)C(=O)N[C@H](C(=O)NCC(N)=O)CSCC(=O)N[C@@H](Cc2ccc(O)cc2)C(=O)N(C)[C@@H](C)C(=O)N[C@@H](CC(N)=O)C(=O)N2CCC[C@H]2C(=O)N[C@@H](CN)C(=O)N[C@@H](CC(C)C)C(=O)N2C[C@H](O)C[C@H]2C(=O)N[C@@H](Cc2c[nH]c3ccccc23)C(=O)N[C@@H](CCN)C(=O)NC(Cc2cn(CC(=O)O)c3ncncc23)C(=O)N1C (stereo partly drawn) [Example 10002] ({CH2CO}-Y[NMeA]NP[Dap]L[Hyp]W[Dab][X8][NMeNle][NMeNle]LCG-NH2; thioether N-14) | 100 to 990 nM
8 | CCCC[C@H]1C(=O)N(C)[C@@H](CCCC)C(=O)N[C@@H](CC(C)C)C(=O)N[C@H](C(=O)NCC(N)=O)CSCC(=O)N[C@@H](Cc2ccc(O)cc2)C(=O)N(C)[C@@H](C)C(=O)N[C@@H](CC(N)=O)C(=O)N2CCC[C@H]2C(=O)N[C@@H](CN)C(=O)N[C@@H](CC(C)C)C(=O)N2C[C@H](O)C[C@H]2C(=O)N[C@@H](Cc2c[nH]c3ccccc23)C(=O)N[C@@H](CCN)C(=O)N[C@@H](Cn2c(=O)n([C@H](C)C(=O)O)c3ccccc32)C(=O)N1C [Example 1014] ({CH2CO}-Y[NMeA]NP[Dap]L[Hyp]W[Dab][X14][NMeNle][NMeNle]LCG-NH2; thioether N-14) | 1 to 9.9 nM
9 | CCCC[C@H]1C(=O)N(C)[C@@H](CCCC)C(=O)N[C@@H](CC(C)C)C(=O)N[C@H](C(=O)NCC(N)=O)CSCC(=O)N[C@@H](Cc2ccc(O)cc2)C(=O)N(C)[C@@H](C)C(=O)N[C@@H](CC(N)=O)C(=O)N2CCC[C@H]2C(=O)N[C@@H](CN)C(=O)N[C@@H](CC(C)C)C(=O)N2C[C@H](O)C[C@H]2C(=O)N[C@@H](Cc2c[nH]c3ccccc23)C(=O)N[C@@H](CCN)C(=O)N[C@@H](Cc2cn(Cc3nnn[nH]3)c3ccccc23)C(=O)N1C [Example 1020] ({CH2CO}-Y[NMeA]NP[Dap]L[Hyp]W[Dab][X17][NMeNle][NMeNle]LCG-NH2; thioether N-14) | > 1000 nM
10 | CCCC[C@H]1C(=O)N(C)[C@@H](CCCC)C(=O)N[C@@H](CCCNC(=N)N)C(=O)N[C@H](C(=O)NCC(N)=O)CSCC(=O)N[C@@H](Cc2ccc(O)cc2)C(=O)N(C)[C@@H](C)C(=O)N[C@@H](CC(N)=O)C(=O)N2CCC[C@H]2C(=O)N[C@@H](Cc2cnc[nH]2)C(=O)N[C@@H](CC(C)C)C(=O)N2C[C@H](O)C[C@H]2C(=O)N[C@@H](Cc2c[nH]c3ccccc23)C(=O)N[C@@H](CO)C(=O)N[C@@H](Cc2cncc3ccccc23)C(=O)N1C [Example 1254] ({CH2CO}-Y[NMeA]NPHL[Hyp]WS[Ala(4-isoquinolinyl)][NMeNle][NMeNle]RCG-NH2; thioether N-14) | 10 to 99 nM
11 | CCCC[C@H]1C(=O)N(C)[C@@H](CCCC)C(=O)N[C@@H](CC(C)C)C(=O)N[C@H](C(N)=O)C(C)(C)SCC(=O)N[C@@H](Cc2ccc(OC)cc2)C(=O)N2CCCC[C@H]2C(=O)N[C@@H](CC(=O)O)C(=O)N2CCC[C@H]2C(=O)N[C@@H](Cc2cnc[nH]2)C(=O)N[C@@H](CCC(=O)O)C(=O)N2C[C@H](O)C[C@H]2C(=O)N[C@@H](Cc2c[nH]c3ccccc23)C(=O)N[C@@H](CCN)C(=O)N[C@@H](Cc2cn(CC(=O)NS(C)(=O)=O)c3ccccc23)C(=O)N1C [Example 1007] ({CH2CO}-Y(Me)[Pip]DPHE[Hyp]W[Dab][Trp(1-CH2CONHSO2Me)][NMeNle][NMeNle]L[Pen]-NH2; thioether N-14) | 1 to 9.9 nM
12 | CCCC[C@H]1C(=O)N(C)[C@@H](CCCC)C(=O)N[C@@H](CC(C)C)C(=O)N[C@H](C(N)=O)C(C)(C)SCC(=O)N[C@@H](Cc2ccc(O)cc2)C(=O)N2CCCC[C@H]2C(=O)N[C@@H](CC(=O)O)C(=O)N2CCC[C@H]2C(=O)N[C@@H](CN)C(=O)N[C@@H](CCC(=O)O)C(=O)N2C[C@H](O)C[C@H]2C(=O)N[C@@H](Cc2c[nH]c3ccccc23)C(=O)N[C@@H](CCN)C(=O)N[C@@H](Cc2cn(CC(=O)NS(C)(=O)=O)c3ccccc23)C(=O)N1C [Example 1011] ({CH2CO}-Y[Pip]DP[Dap]E[Hyp]W[Dab][Trp(1-CH2CONHSO2Me)][NMeNle][NMeNle]L[Pen]-NH2; thioether N-14) | 1 to 9.9 nM

— patent US10358463B2, “Immunomodulators” (BRISTOL-MYERS SQUIBB COMPANY, priority 2016, dated 2019)
